The text below walks through data of PubChem BioAssay (NCI).

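Interpolation was linear, between the two tested concentrations surrounding the appropriate level; five concentrations were tested over 48 hours in 96-well plates. TGI is the concentration that stops growth completely.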

Test systems include KM20L2 colon; XF 498 CNS; HOP-18 NSCLC; DMS 114 small cell lung; DLD-1 colon; LXFL 529 NSCLC; RXF-631 renal; SNB-78 CNS; P388 leukemia; SN12K1 renal; P388/ADR leukemia.
Common to all, as to assay: NCI tumour cell line growth inhibition, 48 h

In the case of `Cc1cn(C2CC(O)C(CO)C2C)c(=O)[nH]c1=O` (centres undefined), the TGI in the assay on KM20L2 colon, in the assay with XF 498 CNS, in the assay on HOP-18 NSCLC, with DMS 114 small cell lung, in the assay with DLD-1 colon and in the assay with LXFL 529 NSCLC was > 100 µM throughout. Besides, the TGI in the assay with RXF-631 renal and with SNB-78 CNS was > 100 µM in each case.
As for `CO/C(=N\N=C\c1ccc(Cl)cc1)c1ccncc1`, the TGI in the assay on KM20L2 colon, in the assay on XF 498 CNS, with DMS 114 small cell lung, in the assay on DLD-1 colon, with LXFL 529 NSCLC and with SNB-78 CNS was > 100 µM each time.
`CN(C)N=Nc1ccc([N+](=O)[O-])cc1C(N)=O`: the TGI in the assay with KM20L2 colon, in the assay on P388 leukemia, in the assay on XF 498 CNS, in the assay with HOP-18 NSCLC, in the assay with SN12K1 renal and in the assay on DMS 114 small cell lung was > 100 µM each time. Moreover, the TGI with P388/ADR leukemia, in the assay with DLD-1 colon and in the assay with SNB-78 CNS was > 100 µM each time.
For the molecule `CC(C)(C)C#C[P+](c1ccccc1)(c1ccccc1)c1ccccc1`, the TGI worked out at 1.19 µM in the assay with KM20L2 colon; 6.34 µM in the assay on HOP-18 NSCLC; 2.5 µM in the assay with DLD-1 colon; 0.67 µM in the assay with LXFL 529 NSCLC; 2.63 µM in the assay with RXF-631 renal; 1.35 µM in the assay with SNB-78 CNS.
